We go through six compounds from patent US20240109925A1, “Enhanced Anti-Proliferative and Antitumor Immune Effects of Mitochondria-Targeted Hydroxyurea” (The Medical College of Wisconsin, Inc., priority 2021, published 2024).

Read-outs that look alike come from different tables or passages of the source. A value given as a limit tells only on which side of the number the result lay.

In assay [1] the test system is mitochondrial complex III. Put plainly: Complex III-dependent oxygen consumption (OCR), Seahorse XF-96, HCT116 cells. As to conditions: 24 hr, HCT116, n = 4. Format: cell-based, human. As for the experimental part:
(§1) FIG. 2. Effects of HU and Mito-HUs on the oxygen consumption by mitochondrial complexes I and III (A) Dose-dependent effects of HU, Mito10-HU, Mito12-HU, Mito14-HU, Mito16-HU, and Mito20-HU on complex I- and complex III-dependent oxygen consumption were measured in HCT116 cells. HCT116 cells were treated with HU or Mito-HUs as indicated for 24 hr. Mitochondrial complex I activity (left) and complex III activity (right) were monitored by a Seahorse XF-96 analyzer. Either rotenone (complex I inhibitor) or antimycin A (complex III inhibitor) was acutely added and OCR assayed immediately. (B) The mitochondrial complex I (left) and III (right) dependent oxygen consumption (calculated as rotenone or antimycin A inhibitable OCR) are plotted against concentration of HU and Mito-HUs. Dashed lines represent the fitting curves used for determination of the IC50 values. Data shown are the means G SD.
(§2) Mitochondrial oxygen consumption was measured using the Seahorse XF-96 Extracellular Flux Analyzer (Agilent, North Billerica, MA) (Cheng et al., 2013, 2016; Boyle et al., 2018; Weinberg and Chandel, 2015). After cells were treated with HU or Mito-HUs for 24 hr, the OCR-based assessment of mitochondrial complex activities was carried out on acutely permeabilized cells in the presence of different mitochondrial substrates, i.e., pyruvate/malate for complex I and duroquinol for complex III (Cheng et al., 2016, 2019; Salabei et al., 2014; Wheaton et al., 2014). Rotenone, malonate, and antimycin A (Sigma-Aldrich, St. Louis, MO) were used as specific inhibitors of mitochondrial complexes I, II, and III, respectively. Briefly, cells that were intact after treatments were immediately permeabilized using the Seahorse XF Plasma Membrane Permeabilizer (Agilent). The mitochondrial complex I-induced OCR was assayed in mannitol and sucrose buffer (Salabei et al., 2014) containing 10 mM pyruvate and 1.5 mM malate (substrates for complex I) and 10 mM malonate (which inhibits complex II activities). The mitochondrial complex III-driven OCR was assayed in a mannitol and sucrose buffer containing 0.5 mM duroquinol (substrate for complex III) as well as […] and 10 mM malonate (which inhibit both complex I and II activities). The IC50 values were determined as previously reported (Cheng et al., 2019).

The target of assay [2] is T1, mitochondrial complex III (Homo sapiens, UniProt P00156+P47985).
T1 construct: other: mean ± SD; HCT116, 24 hr treatment; Complex III activity (OCR, % of control); other: 0.1 μM, 24 hr, HCT116; n = 4; other: 0.5 μM, 24 hr, HCT116; other: 0.75 μM, 24 hr, HCT116; other: 1 μM, 24 hr, HCT116; Compl
The assay is described as above. Format: cell-based. As for the experimental part:
as §1, §2

Assay [3] concerns MiaPaCa-2 human pancreatic cancer cells. Put plainly: Cell proliferation, IncuCyte Live-Cell Analysis system. Format: cell-based. An excerpt: FIG. 7. Effects of HU and Mito10-HU on proliferation of MiaPaCa-2 human pancreatic cancer cells; MiaPaCa-2 cells treated with HU or Mito10-HU were monitored in the IncuCyte Live-Cell Analysis system. Cell proliferation was monitored in real-time with the continuous presence of indicated treatments until the end of each experiment. Data shown are the means±SD.
The following cell lines were obtained from the American Type Culture Collection (Manassas, VA), where they were regularly authenticated: HCT116 (ATCC Cat #CRL-247, human colon cancer cells) and MiaPaCa-2 (ATCC Cat #CRL-1420, human pancreatic cancer cells). All cells were cultured in a humidified incubator at 37° C. and 5% carbon dioxide. HCT116 cells were maintained in RPMI 1640 medium (Thermo Fisher Scientific, Cat #11875), supplemented with 10% fetal bovine serum. MiaPaCa-2 cells were maintained in Dulbecco's Modified Eagle Medium (Thermo Fisher Scientific, Waltham, MA; Cat #11965) supplemented with 10% fetal bovine serum. All cells were stored in liquid nitrogen and used within 20 passages after thawing.
The IncuCyte Live-Cell Analysis system (Essen Bioscience Inc., Ann Arbor, MI) was used to monitor cell proliferation (Cheng et al., 2013, 2016; Boyle et al., 2018). As shown in previous publications (Cheng et al., 2013, 2016), this imaging system is probe-free and noninvasive, and enables continuous monitoring of cell confluence over several days. The increase in the percentage of cell confluence was used as a surrogate marker of cell proliferation. In a 96-well plate, cells were plated at 1,000 cells per well in triplicates and left to adhere overnight. Cells were then treated with HU and Mito-HUs, and the cell confluency was recorded over several days in the IncuCyte Live-Cell Analysis system.

Assay [4] has as its system HCT116 human colon cancer cells. In words: Cell proliferation (cell confluence), IncuCyte Live-Cell Analysis system. Format: cell-based.
[5] abbreviates: mean ± SD; HCT116, 24 hr treatment; read-out: IC50 Complex III (FIG. 2).

Usually IC50 stands for the concentration at which inhibition is half-maximal. Turning to `NC(=O)NOCCCCCCCCCCCCCCCC[P+](c1ccccc1)(c1ccccc1)c1ccccc1.O=C([O-])C(F)(F)F` [Mito16-HU, 16-[(carbamoylamino)oxy]-hexadecyltriphenylphosphonium trifluoroacetate], the “Complex III activity (OCR, % of control)” value in assay [1] (0.4 μM) was 81.38 % of control; in assay [1] (0.5 μM) it was 79.37 % of control; in assay [1] (0.6 μM) it was 80.12 % of control; in assay [1] (0.8 μM), 68.47 % of control. Moreover, in assay [2] (HCT116, 24 hr), the “effect on complex III-induced oxygen consumption” value was “potently inhibited”. Further, the IC50 in assay [2] (setting [5]) is 2.6 ± 0.39 µM. In assay [3], the “inhibition of proliferation of MiaPaCa-2 cells” value (from here on “inhibition”) is “increasing antiproliferative potencies”.
In the case of `NC(=O)NOCCCCCCCCCCCC[P+](c1ccccc1)(c1ccccc1)c1ccccc1.O=C([O-])C(F)(F)F` [Mito12-HU, 12-[(carbamoylamino)oxy]-dodecyltriphenylphosphonium trifluoroacetate], the “Complex III activity (OCR, % of control)” value is reported as 74.02 % of control in assay [1] (1.5 μM); 55.15 % of control in assay [1] (2 μM); 51.26 % of control in assay [1] (2.5 μM); 35.02 % of control in assay [1] (4 μM); 24.56 % of control in assay [1] (7.5 μM). Besides, the “effect on complex III-induced oxygen consumption” value in assay [2] (HCT116, 24 hr) is listed as “potently inhibited”. Moreover, the IC50 in assay [2] (setting [5]) came out at 3.1 ± 0.18 µM. Moreover, in assay [3], the “inhibition” value is “increasing antiproliferative potencies”.
Turning to `NC(=O)NO` [HU, Hydroxyurea], the “effect on complex III-induced oxygen consumption” value in assay [2] (HCT116, 24 hr) was “no apparent effects”. Also, the remaining activity at 10 µM in assay [2] (HCT-116; 10 μM, 24 hr, HCT116; n = 4; read-out: Complex III activity (OCR, % of control)) was found to be 94.1%. In addition, the remaining activity at 30 µM in assay [2] (HCT-116; 30 μM, 24 hr, HCT116; n = 4; read-out: Complex III activity (OCR, % of control)) amounted to 81.2%. The remaining activity at 100 µM in assay [2] (HCT-116; 100 μM, 24 hr, HCT116; n = 4; read-out: Complex III activity (OCR, % of control)) was found to be 94.6%. In assay [2] (HCT-116; 150 μM, 24 hr, HCT116; n = 4; read-out: Complex III activity (OCR, % of control)), the remaining activity at 150 µM worked out at 92.2%. Further, the remaining activity at 200 µM in assay [2] (HCT-116; 200 μM, 24 hr, HCT116; n = 4; read-out: Complex III activity (OCR, % of control)) was found to be 82.7%. Moreover, the remaining activity at 250 µM in assay [2] (HCT-116; 250 μM, 24 hr, HCT116; n = 4; read-out: Complex III activity (OCR, % of control)) worked out at 89.1%. In addition, in assay [2] (HCT-116; 300 μM, 24 hr, HCT116; n = 4; read-out: Complex III activity (OCR, % of control)), the remaining activity at 300 µM stood at 88.7%. In addition, in assay [2] (HCT-116; 400 μM, 24 hr, HCT116; n = 4; read-out: Complex III activity (OCR, % of control)), the remaining activity at 400 µM was 86.8%. Also, the remaining activity at 500 µM in assay [2] (HCT-116; 500 μM, 24 hr, HCT116; n = 4; read-out: Complex III activity (OCR, % of control)) stood at 88.9%. Further, the remaining activity at 1000 µM in assay [2] (HCT-116; 1000 μM, 24 hr, HCT116; n = 4; read-out: Complex III activity (OCR, % of control)) is 93.1%. Besides, the remaining activity at 3000 µM in assay [2] (HCT-116; 3000 μM, 24 hr, HCT116; n = 4; read-out: Complex III activity (OCR, % of control)) came to 94.4%. Besides, the IC50 in assay [2] (read-out: IC50 Complex III (FIG. 2); mean ± SD; HCT116, 24 hr treatment) was more than 3000 µM.
With `NC(=O)NOCCCCCCCCCCCCCCCCCCCC[P+](c1ccccc1)(c1ccccc1)c1ccccc1.O=C([O-])C(F)(F)F` [Mito20-HU, 20-[(carbamoylamino)oxy]-eicosanyltriphenylphosphonium trifluoroacetate], the “Complex III activity (OCR, % of control)” value is 98.80 % of control in assay [1] (0.03 μM); 106.63 % of control in assay [1] (0.1 μM); 101.11 % of control in assay [1] (0.2 μM); 107.99 % of control in assay [1] (0.3 μM); 102.43 % of control in assay [1] (0.5 μM); 12.77 % of control in assay [1] (20 μM). For the same compound, the IC50 in assay [2] (setting [5]) is 4.2 ± 0.4 µM. Also, the “inhibition” value in assay [3] is listed as “increasing antiproliferative potencies”.
`NC(=O)NOCCCCCCCCCCCCCC[P+](c1ccccc1)(c1ccccc1)c1ccccc1.O=C([O-])C(F)(F)F` [Mito14-HU, 14-[(carbamoylamino)oxy]-tetradecyltriphenylphosphonium trifluoroacetate]: the “effect on complex III-induced oxygen consumption” value in assay [2] (HCT116, 24 hr) is “potently inhibited”. For the same compound, the IC50 in assay [2] (setting [5]) is 1.7 ± 0.69 µM.
For the compound `NC(=O)NOCCCCCCCCCC[P+](c1ccccc1)(c1ccccc1)c1ccccc1.O=C([O-])C(F)(F)F` [Mito10-HU, 10-[(carbamoylamino)oxy]-decyltriphenylphosphonium trifluoroacetate], the “antiproliferative effect, each alone (AZD-3965 experiment)” value in assay [4] (Mito10-HU (5 μM) or AZD-3965 (100 μM) independently, HCT-116) is on record as “negligible antiproliferative effects”. In assay [4] (Mito10-HU (5 μM) or syrosingopine (7.5 μM) independently, HCT116), the “effect on cell proliferation, each alone (syrosingopine experiment)” value is listed as “minimally affected cell proliferation”. Moreover, in assay [2] (HCT116, 24 hr), the “effect on complex III-induced oxygen consumption” value is recorded as “potently inhibited”. Besides, in assay [2] (setting [5]), the IC50 was 21 ± 0.72 µM. Further, in assay [3], the “inhibition” value was “increasing antiproliferative potencies” and the “potency compared with HU in inhibiting MiaPaCa-2 cell proliferation” value is approximately 100 times.
